Measurements reported in US9907795B2, “Method of treatment of chronic cough administering orvepitant in combination with other therapeutic agents” (NeRRe Therapeutics Limited, priority 2016, dated 2018).
Where a name gives a salt, the structure may show the parent alone.

Columns and labels:
Format in all cases: in vivo, human
[1] = tested on: patients with a diagnosis of chronic treatment-refractory cough; assay: Global Rating of Change for Cough Frequency & Severity Scale, open-label pilot study
Procedure: (§1) Orvepitant maleate Form 1 was evaluated in an open-label pilot study to determine the efficacy of multiple dosing in male and female patients with a diagnosis of chronic treatment-refractory cough for over 3 months. The study was a single-arm (30 mg orvepitant maleate Form 1 once daily), 4-week study with a 4 week follow-up. There were five scheduled clinic visits; Screening visit, Baseline visit, Week 1 visit, Week 4 visit (end of treatment period) and a Week 8 Follow-up visit. The following instruments were used to assess efficacy: • Subjects were fitted with an ambulatory cough monitor (ACM) to record objective cough frequency over 24 hours at Screening, Weeks 1, 4 and 8 • Cough-specific Quality of Life Questionnaire (CQLQ): Subjects were asked to complete this questionnaire at Screening, Weeks 1, 4 and 8 • Global Rating of Change for Cough Frequency & Severity Scale: Subjects were asked to complete this scale at Weeks 1, 4 and 8 • Cough Severity VAS: Subjects were issued with diaries for daily recording of Cough Severity VAS scores. 13 subjects were enrolled into the study and provided data on cough frequency, Cough QOL, Global Rating of Change for Cough Frequency and Severity, and Cough Severity VAS, but one of the 13 subjects had data missing on cough frequency (day and night) at week 4.

[2] = tested on: patients with a diagnosis of chronic treatment-refractory cough; assay: Cough-specific Quality of Life Questionnaire (CQLQ), open-label pilot study
Procedure: as §1

[3] = tested on: patients with a diagnosis of chronic treatment-refractory cough; assay: Cough Severity VAS (daily diary), open-label pilot study
Procedure: as §1

[4] = tested on: patients with a diagnosis of chronic treatment-refractory cough; assay: Objective cough frequency by ambulatory cough monitor, open-label pilot study; settings: for daytime objective cough frequency, mean change from Baseline: Week 4 (end of treatment) vs Baseline, 30 mg once daily, p<0.001, primary endpoint
Procedure: as §1, with “4. The primary endpoint was change in objective daytime cough frequency at the end of the treatment period at Week 4 compared to Baseline.” for “4.”

## Cc1cc(F)ccc1[C@H]1C[C@@H](N2CCN3C(=O)CC[C@H]3C2)CCN1C(=O)N(C)[C@H](C)c1cc(C(F)(F)F)cc(C(F)(F)F)c1 [Orvepitant maleate Form 1, 2-(R)-(4-Fluoro-2-methyl-phenyl)-4-(S)-((8aS)-6-oxo-hexahydro-pyrrolo[1,2-α]-pyrazin-2-yl)-piperidine-1-carboxylic acid [1-(R)-(3,5-bis-trifluoromethyl-phenyl)-ethyl]-methylamide maleate]
[1]; Week 1
  Global Rate of Change, cough frequency: subjects who felt worse: No subjects felt worse
  Global Rate of Change, cough severity: subjects who felt worse: No subjects felt worse
[1]; Week 1, 3 = somewhat better
  Global Rate of Change, cough frequency: median improvement score: 3
[1]; Week 1, 4 = moderately better
  Global Rate of Change, cough severity: median improvement score: 4
[1]; Week 4
  Global Rate of Change, cough frequency: subjects who felt worse: No subjects felt worse
  Global Rate of Change, cough severity: subjects who felt worse: No subjects felt worse
[1]; Week 4, 3 = somewhat better
  Global Rate of Change, cough frequency: median improvement score: 3
  Global Rate of Change, cough severity: median improvement score: 3
[2]; Week 1, p<0.001
  CQLQ Overall score, mean change from Baseline: −4.0
[2]; Week 4, p=0.005
  CQLQ Overall score, mean change from Baseline: −4.4
[2]; Week 8, p=0.033
  CQLQ Overall score, mean change from Baseline: −3.4
[2]; Weeks 1, 4 and 8
  CQLQ Extreme Physical domain, change from Baseline: significant changes from Baseline
  CQLQ Psychosocial domain, change from Baseline: significant changes from Baseline
[2]; between Weeks 4 and 8, p=0.52
  CQLQ Overall score, difference: no significant difference
[2]; from Week 4 to Week 8
  CQLQ, any of the domains, change: no significant changes
[2]; in vivo
  CQLQ Emotional domain, change: No significant changes
[3]; Week 1 of study, p=0.01
  night-time cough severity VAS, average change from Baseline: −14%
[3]; Week 2 of study, p=0.002
  daytime cough severity VAS, average change from Baseline: −39%
[3]; Week 6 of study, p=0.001
  daytime cough severity VAS, average change from Baseline: −14%
[3]; Week 6 of study, p=0.017
  night-time cough severity VAS, average change from Baseline: −18%
[4]; Week 1 vs Baseline, p=0.19
  reduction in mean night-time objective cough frequency: no significant reduction
[4]; negative binomial regression model
  daytime objective cough frequency, mean change from Baseline: −18.9 coughs/hr
[4]
  daytime objective cough frequency, mean change from Baseline: −26%
[4]; Week 4 vs Baseline, p=0.65
  reduction in mean night-time objective cough frequency: no significant reduction
[4]; Week 8 compared to Week 4, p=0.86
  change in daytime objective cough frequency: no significant change
[4]; between Weeks 4 and 8, p=0.10
  reduction in mean night-time objective cough frequency: no significant reduction
